# Assay results taken from US12642862B2, “Anti-CD79B antibody-drug conjugate, and preparation method therefor and pharmaceutical use thereof” (TUOJIE BIOTECH (SHANGHAI) CO., LTD., priority 2020, dated 2026).
# “And” between values parts separate entries of the source, which are not always exact repeats. Equal entries are not always repeated. Where two headings read alike, the source gives them in different places.
# Key:
# [1] = test system: DoHH2; assay type: cell-based, human; settings: DoHH2 (CD79B high-expression), 72 h, MTT
# Experimental: (§1) This example was performed to evaluate the effect of different ADCs on the proliferation of DoHH2, WSU-DLCL2 and Raji cells cultured in vitro.
# (§2) A certain number of cells in logarithmic growth phase were seeded into a 96-well culture plate, and drugs at different concentrations were added to the culture plate for reaction for 72 h. After the reaction was completed, an MTT working solution was added for reaction for 4 h, then blue-purple crystalline formazan was dissolved with a triplex solution.
# (§3) From the inhibition rate at each concentration, the half maximal inhibitory concentration IC50 was calculated using PrismGraph 8.
# [2] = biological target: T1, human CD79B (Homo sapiens, UniProt P40259); test: Biacore affinity assay of CD79B antibodies and ADCs; design: His; purchased Sino Biological 29750-H08H; settings: binding force to human CD79B protein
# T1 sequence (P40259 29-159 limits assumed): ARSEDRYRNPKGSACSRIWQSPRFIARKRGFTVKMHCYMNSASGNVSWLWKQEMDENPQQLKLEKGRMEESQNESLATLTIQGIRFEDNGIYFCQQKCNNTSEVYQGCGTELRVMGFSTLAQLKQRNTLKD
# Excerpt: Experimental instruments, materials and reagents: Biacore T200 (GE); biosensor chip CM5 (Cat. #BR-1005-30, GE); amino coupling kit (Cat. #BR-1000-50, GE); human antibody capture kit (Cat. #BR-1008-39, GE); human CD79B-His protein (Cat. #29750-H08H, Sino Biological); HBS-EP+10× buffer (Cat. #BR-1006-69, GE) diluted to 1× (pH 7.4) with D. I. Water.
# Experimental procedures: human antibody capture antibodies were covalently coupled to a CM5 biochip according to the method described instructions of the human antibody capture kit for affinity capture of a certain amount of CD79B antibody.
# Statistics and analysis of data: data were fitted by BIAevaluation version 4.1, GE software using a (1:1) Langmuir model to obtain affinity values.
# [3] = test system: human diffuse large B-cell lymphoma WSU-DLCL2-induced nude mouse subcutaneous xenograft tumor; assay type: in vivo, nude mice (BALB/c-nu); settings: 3 mg/kg, IV
# Experimental: This example was performed to further evaluate and compare the efficacy of ADC drugs on WSU-DLCL2-induced nude mouse subcutaneous xenograft tumor.
# Experimental steps: each nude mouse was subcutaneously inoculated with 2×10^7 WSU-DLCL2 cells, and after the tumor volume reached 100-150 mm^3, the animals were grouped according to tumor volume (D0). The mice were administrated by intravenous injection (IV) at an administration volume of 10 mL/kg. The tumor volumes and body weights were measured twice a week and the results were recorded.
# Unless otherwise indicated, comparison between tumor volumes of the two groups was made by two-tailed Student's t-test, with P<0.05 defined as statistically significant difference.
# [4] = test system: human follicular lymphoma DOHH-2-induced nude mouse subcutaneous xenograft tumor; assay type: in vivo, nude mice (BALB/c-nu); settings: 1 mg/kg, IV
# Experimental: This example was performed to further evaluate and compare the efficacy of ADC drugs on DoHH2-induced nude mouse subcutaneous xenograft tumor.
# 2. Cells and mice: DOHH-2 cells were purchased from DSMZ, Germany.
# Nude mice, BALB/c-nu, 4-5 weeks of age, female, were purchased from Shanghai Lingchang Biotechnology Co., Ltd, with production license number of SCXK (Shanghai) 2018-0003, and animal certification number of 20180003010222. Housing environment: SPF grade.
# 3. […] The mice were administrated by intravenous injection (IV) at an administration volume of 10 mL/kg.
# At the end of the experiment, at the experiment endpoint, or when the mean tumor volume in the solvent group reached 1500 mm^3, the animals were sacrificed by CO2 anesthesia and dissected to give the tumors. The tumors were photographed.
# [5] = test system: human diffuse large B-cell lymphoma WSU-DLCL2-induced nude mouse subcutaneous xenograft tumor; assay type: in vivo, nude mice (BALB/c-nu); settings: for Mean tumor volume (mm^3 ± SEM) D0 / Mean tumor volume (mm^3 ± SEM) D21 / Tumor growth inhibition (%) D21 / T/C (%) D21 / Partial regression: IV; for Mean tumor volume (mm^3 ± SEM) D0: baseline at grouping; for Mean tumor volume (mm^3 ± SEM) D21 / Tumor growth inhibition (%) D21 / T/C (%) D21 / Partial regression: single dose D0; for T/C (%) D21: control IgG1; for Partial regression: tumors (of 6) with volume on D21 less than on D0
# Experimental: This example was performed to evaluate and compare the efficacy of ADC drugs on nude mouse subcutaneous xenograft tumor.
# Cells and mice: human diffuse large B-cell lymphoma WSU-DLCL2 cells were purchased from American Type Culture Collection. WSU-DLCL2 cells were cultured in a 10 cm petri dish with an RPMI 1640 culture medium (Gibco) containing 10% fetal bovine serum, penicillin and streptomycin and incubated in an incubator at 37° C. with 5% CO2. Subculturing was performed 2-3 times a week, and cells were collected, counted and seeded when they were in exponential growth phase.
# Nude mice, BALB/c-nu, 35 days of age, female, were purchased from Beijing Huafukang Biotechnology Co., Ltd, with production license number of SCXK (Beijing) 2019-0008, and animal certification number of 1103222011004014. Housing environment: SPF grade.
# The experimental index is to study the effect of the drug on the tumor growth, and the specific index is T/C % or tumor growth inhibition TGI (%).
# Tumor diameters were measured twice a week with a vernier caliper and tumor volume (V) was calculated according to the following formula: V=½×a×b^2, where a and b represent length and width, respectively.
# T/C (%)=(T−T0)/(C−C0)×100, where T and C represent the tumor volume of animals at the end of the experiment in the treatment group and control group, respectively; T0 and C0 represent the tumor volume of animals at the beginning of the experiment in the treatment group and control group, respectively; where T is the tumor volume of the ADC administered and C is the tumor volume of IgG1 administered as a control group.
# At the end of the experiment, at the experiment endpoint, or when the mean tumor volume in the solvent group reached 1500 mm^3, the animals were sacrificed by CO2 anesthesia and dissected to give the tumors. The tumors were photographed. Unless otherwise indicated, comparison between tumor volumes of the two groups was made by two-way ANOVA test, with P<0.05 defined as statistically significant difference.
# [6] = test system: DOHH-2 cells highly expressing human CD79B protein; assay type: cell-based; settings: DoHH2 cells, 20 μg/mL ADC, 37° C.
# Experimental: A cell endocytosis experiment was performed with DOHH-2 cells (DSMZ, ACC 47) highly expressing human CD79B protein to assess the endocytosis ability of ADCs.
# The cells were collected by low temperature centrifugation at 4° C. for 5 min at 1000 rpm during the experiment. The cells were resuspended in 10-15 mL of FACS buffer pre-cooled on ice. The FACS buffer was composed of phosphate buffered saline (PBS), pH 7.4, with 2% fetal bovine serum (FBS). Throughout the experiment, FACS buffer was pre-cooled on ice. The cells were counted and centrifuged, and added to a 96-well plate at 300,000 cells/well. After centrifugation, the supernatant was discarded, and 12.5 μg/mL Fc blocking solution (BD, Cat No.: 564220) was added at 100 μL/well. Blocking was performed at room temperature for 10 min. Then, 20 μg/mL test ADC was added to the corresponding wells, and the plate was incubated at 4° C. for 1 h away from the light. The plate was washed twice with a pre-cooled PBS buffer to remove unbound ADCs. A complete cell culture medium (RPMI 1640 medium with 10% fetal bovine serum) was added, and the plate was incubated at 37° C. with 5% CO2 for 0 h and 4 h. […] The cells were resuspended in an FACS buffer at 200 μL/well and detected using a flow cytometer (BD FACS Calibur).
# [7] = test system: Raji; assay type: cell-based; settings: Raji (CD79B negative-expression), 72 h, MTT
# Experimental: as §1, §2, §3
# [8] = test system: WSU-DLCL2; assay type: cell-based, human; settings: WSU-DLCL2 (CD79B low-expression), 72 h, MTT
# Experimental: as §1, §2, §3
substance,measurement,setting,value
ADC-8: SN8 conjugated with MC-VC-PAB-MMAE; positive drug ADC-8 (namely Polivy) [reference compound],IC50,[1],0.0806 µg/mL
same,EC50,[2],5.98 nM
same,Mean tumor volume (mm^3) D0,"[3]; D0, baseline at grouping",105.0 mm^3
same,% T/C D21,"[3]; single dose D0, D21",90%
same,% Tumor growth inhibition D21,"[3]; single dose D0, D21",10%
same,Mean tumor volume (mm^3) D21,"[3]; single dose D0, D21",792.6 mm^3
same,Partial regression,"[3]; single dose D0, tumors of 6",0
same,Mean tumor volume (mm^3) D0,"[4]; D0, baseline at grouping",117.1 mm^3
same,Mean tumor volume (mm^3) D20,"[4]; single dose D0, D20",862.1 mm^3
same,Tumor growth inhibition (%) D20,"[4]; single dose D0, D20",41%
same,T/C (%) D20,"[4]; single dose D0, D20, control IgG1",59%
same,Partial regression,"[4]; single dose D0, tumors of 6",0
same,efficacy on WSU-DLCL2-induced nude mouse subcutaneous xenograft tumor (conclusion),"[5]; 3 mg/kg or 10 mg/kg, single intravenous injection",significant efficacy
same,Mean tumor volume (mm^3 ± SEM) D0,[5]; 3 mg/kg,117.6 ± 3.0 mm^3
same,Mean tumor volume (mm^3 ± SEM) D21,[5]; 3 mg/kg,547.2 ± 38.1 mm^3
same,Tumor growth inhibition (%) D21,[5]; 3 mg/kg,39%
same,T/C (%) D21,[5]; 3 mg/kg,61%
same,Partial regression,[5]; 3 mg/kg,0
same,Mean tumor volume (mm^3 ± SEM) D0,[5]; 10 mg/kg,115.0 ± 3.7 mm^3
same,Mean tumor volume (mm^3 ± SEM) D21,[5]; 10 mg/kg,167.8 ± 50.3 mm^3
same,Tumor growth inhibition (%) D21,[5]; 10 mg/kg,93%
same,T/C (%) D21,[5]; 10 mg/kg,7%
same,Partial regression,[5]; 10 mg/kg,4/6 and 4
same,Endocytosis rate (4 h),[6],76%
same,IC50,[7],>10 µg/mL
same,IC50,[8],0.1169 µg/mL
